This assay concerns A549 cells. The experiment in a line: A549 microarray comparing macrolides with arachidonic acid pathway inhibitors, with IL-1β stimulation (Appendix C, Tables 6-9), and correlation analysis. The class given is cell-based. The note with it: for Total # Differential Genes (95% confidence): A549, threshold 1.3; for FADS1 expression: A549 cells, microarray. The text has this:
One inhibitor, triacsin C, acts on AA biosynthesis by inhibiting arachidonyl CoA synthetases, blocking the incorporation of free AA into phospholipids. Triacsin C is reasonably specific for AA compared to other fatty acids. However, triacsin C structurally resembles AA so it also may interfere with other steps in the AA pathway. Indomethacin is an inhibitor of COX1 and COX2 enzyme activities and therefore specifically blocks metabolism of AA into prostaglandins. […] It inhibits transcription of PLA2, and transcriptionally and post-transcriptionally regulates COX1 and COX2 activities. Dexamethasone has additional effects unrelated to AA through binding with the glucocorticoid receptor to glucocortcoid response elements.
A549 cells were pre-incubated overnight (17 hours) with macrolides (10 μM FMA-9045, 50 μM clarithromycin, 50 μM roxithromycin, 50 μM josamycin) and 15 μM triacsin C, and pre-incubated 2 hours with 100 nM indomethacin and 100 nM dexamethasone. All cells then were stimulated for 4 hours with IL-1β, because the activation of PLA2 and downstream signaling events generally requires an inflammatory stimulus. The various treatment conditions are shown below in Table 4. Following macrolide and inhibitor pre-treatment and IL-1 stimulation, the cells were lysed, total RNA was collected, and the poly-A+ mRNA fraction was purified. The resulting microarray data (Appendix C) were analyzed using the methods described in the Examples above.
The tables in Appendix C represent the effects of the arachidonic acid pathway inhibitors (“AA pathway inhibitors”) and the effects of the macrolides (“IL1+macrolide effects”). […] In both tables in Appendix C, the genes that meet this criterion (≧1.3 min fold change) are indicated in bold.
Quantitative analysis was done to determine how well the responses to the different AA pathway inhibitors correlated. The correlation values were assigned a p-value to provide statistical confidence to the correlation value. Correlation between experiments, across all spots showing good detection, was assessed by cosine vector angle to generate the data shown in Tables 7-9. A correlation coefficient close to one indicates strong correlation, whereas a value near zero indicates no correlation. P-values for each correlation coefficient were estimated based on a Fisher permutation test. In this test, each spot's expression ratios were randomly re-ordered across experiments and the degree of correlation between experiments was then reassessed. This was done repeatedly.

Setting [1] is: IL1 + Triacsin vs IL1 + Triacsin + macrolide 50 μM.
Where [2] appears, read: IL1 vs IL1 + drug, macrolides 50 μM (FMA 10 μM), triacsin C 15 μM, indomethacin and dexamethasone 100 nM.
Setting [3] is: A549 + IL-1β, of the genes regulated by the labelled drug.

Regarding `CC[C@H]1OC(=O)[C@H](C)[C@@H](O[C@H]2C[C@@](C)(OC)[C@@H](O)[C@H](C)O2)[C@H](C)[C@@H](O[C@@H]2O[C@H](C)C[C@H](N(C)C)[C@H]2O)[C@](C)(O)C[C@@H](C)/C(=N\OCOCCOC)[C@H](C)[C@@H](O)[C@]1(C)O` [roxithromycin], the FADS1 expression entry is “differentially expressed”. Besides, under setting [1], the “Total # Differential Genes (95% confidence)” value turned out to be 7. Also, the “Total # Differential Genes (95% confidence)” value under setting [2] was determined as 65.

Turning to `CC[C@H]1OC(=O)[C@H](C)[C@@H](O[C@H]2C[C@@](C)(OC)[C@@H](O)[C@H](C)O2)[C@H](C)[C@@H](O[C@@H]2O[C@H](C)C[C@H](N(C)C)[C@H]2O)[C@](C)(OC)C[C@@H](C)C(=O)[C@H](C)[C@@H](O)[C@]1(C)O` [clarithromycin], the FADS1 expression entry is “differentially expressed”. Also, under setting [3], the “Number of differentially expressed genes also differential in response to indomethacin” value was 25 and the “Number of differentially expressed genes also differential in response to triacsin C” value is reported as “Forty-two”. In addition, under setting [1], the “Total # Differential Genes (95% confidence)” value amounted to 4. Besides, the “Total # Differential Genes (95% confidence)” value under setting [2] is given as 54.

In the case of `CO[C@@H]1[C@@H](O[C@@H]2O[C@H](C)[C@@H](O[C@H]3C[C@@](C)(O)[C@@H](OC(=O)CC(C)C)[C@H](C)O3)[C@H](N(C)C)[C@H]2O)[C@@H](CC=O)C[C@@H](C)[C@@H](O)/C=C/C=C/C[C@@H](C)OC(=O)C[C@H]1OC(C)=O` [josamycin], the “Total # Differential Genes (95% confidence)” value under setting [2] was 73.

The record behind these values is patent US20070172957A1, “Methods of identifying anti-inflammatory macrolides” (TAISHO PHARMACEUTICAL CO., LTD., priority 2004, published 2007).
